Data reported in US20230097226A1, “GENERATING AORTA-GONAD-MESONEPHROS-LIKE HEMATOPOIETIC CELLS FROM HUMAN PLURIPOTENT STEM CELLS UNDER A DEFINED CONDITION” (Purdue Research Foundation, priority 2020, published 2023).

Columns and labels:
Assay type in all cases: cell-based, human
[1] = system: hPSC-derived hemogenic endothelium; experiment: Hematopoietic specification of hPSC-derived hemogenic endothelium, flow cytometry for CD45; conditions: for yield of resulting stem cells: day 12, differentiation factor applied at hematopoietic specification stage; for generation of CD45+ hematopoietic cells: screening of chemicals and cytokines, feeder-free conditions, 19-9-11 iPSC-derived HE; for yield and purity of CD45+ hematopoietic cells on retrieval from the differentiation medium: day 15 cultures, SCF and FLT3L withdrawn; for efficiency of generating AGM-like hematopoietic stem cells when used in place of SB431542: Day 4-6 of differentiation
Method: While OP9-DLL4 stromal cells have been used to efficiently induce hematopoietic and immune cells from our small-molecule induced HE [32], the undefined nature of feeder cells may lead to inaccurate investigation of signaling pathways during hematopoiesis. Thus, to develop a chemically-defined hematopoietic specification platform, screening of known chemicals and cytokines was performed on our hPSC-derived AGM-like HE under feeder-free conditions (FIG. 2A). […] Wnt-059 and SB-induced hematopoiesis were also applicable to H9 and 6-9-9 hPSCs (FIG. 2E).
19-9-11, 19-9-7, 6-9-9, H1, H9 and H13 were obtained from WiCell and maintained on Matrigel- or iMatrix 511-coated plates in mTeSR plus or mTeSR1 medium according to a previously published method. RUES2 were kindly provided by Dr. Ali H. Brivanlou at the Rockefeller University. The Kolf2 and CT2 data were acquired in Dr. Yang Yang's lab and Dr. Ourania Andrisani's lab at Purdue. H9 7TGFβ Wnt reporter and 19-9-11 ischcat-1 as well as ischcat-2 lines were kindly provided by Dr. Sean Palecek at University of Wisconsin-Madison. To make hematopoietic cells, hPSCs were dissociated with 1 mM EDTA and seeded onto iMatrix 511 or Matrigel-coated 6-, 12- or 24-well plate at a cell density between 10,000 and 80,000 cell/cm^2 in mTeSR plus or mTeSR1 medium with 5 μM Y27632 for 24 hours (day-1). At day 0, cells were treated with 6 μM CHIR99021 (CHIR) in DMEM medium supplemented with 100 ug/ml ascorbic acid (DMEM/Vc), followed by a medium change with LasR basal medium at day 1, day 2 and day 3. For female hPSC lines, 50 ng/mL VEGF was added to the medium from day 2 to day 4. At day 4, medium was replaced by Stemline II medium (Sigma) supplemented 10 μM SB431542. After 2 days, SB431542-containing medium was aspirated and cells were maintained in Stemline II medium with or without 50 ng/mL SCF and FLT3L. At day 9 and every 2 to 3 days afterwards, aspirate half medium and add fresh Stemline II medium with or without SCF/FLT3L until analysis. Other media used to induce hematopoietic cells were illustrated in FIG. 8B.
(§1) Floating hematopoietic cells were gently pipetted and filtered through a 70 or 100 μm strainer sitting on a 50 ml tube. The cells were then pelleted by centrifugation and washed once in PBS−/−solution with 1% bovine serum albumin (BSA). The cells were stained with appropriate conjugated antibodies (Table 1) for 25 mins at room temperature in dark, and analyzed in Accuri C6 plus flow cytometer (Beckton Dickinson) after washing once with BSA-containing PBS−/−solution. FlowJo software was used to process collected flow data.

Wnt signaling = experiment: RT-PCR of day 6 HE samples (WNT3A, AXIN2) and 7TGP Wnt reporter line; conditions: for transcriptional activity of endogenous Wnt signaling: H9 7TGP Wnt reporter line, day 6, eGFP flow cytometry; for expression of WNT3A and AXIN2: RT-PCR, day 6 HE samples
Method: Cells cultured on 24-well plate were collected and lysed in 500 μL TRIzol™ reagent (Invitrogen). Total RNA were then prepared with the Direct-zol RNA miniprep kit (Zymo) with in-column DNase treatment following the manufacture's instruction. cDNA was reverse transcribed from 1 μg RNA with ProtoScript First Strand cDNA Synthesis Kit (NEB) and used for RT-PCR with GoTaq Green Master Mix (Promega).

hPSCs = experiment: Hemogenic endothelium differentiation of hPSCs, flow cytometry and immunostaining for CD34/SOX17; conditions: early CHIR treatment; day 5 cultures
From the text: Producing hemogenic endothelium (HE) from hPSCs, marked by the expression of typical endothelial marker VE-cadherin, CD31, and CD34, is a vital step towards hematopoietic cell generation. We've previously developed a robust protocol to generate homogenous CD34+CD31+HE from hPSCs via small-molecule activation of Wnt signaling (FIG. 1A-B). Since simultaneous modulation of Wnt and Activin signaling yields aorta-like SOX17+ vessels in AGM that give rise to hematopoietic cells, we speculated that our small molecule-induced CD34+CD31+ cells are also SOX17+, which was confirmed by flow cytometry and immunostaining analysis of SOX17 expression (FIG. 1C-D). […] Importantly, the resulting CD34+SOX17+AGM-like HE didn't express CD235a, markers of primitive hematopoiesis.
19-9-11, 19-9-7, 6-9-9, H1, H9 and H13 were obtained from WiCell and maintained on Matrigel- or iMatrix 511-coated plates in mTeSR plus or mTeSR1 medium according to a previously published method. RUES2 were kindly provided by Dr. Ali H. Brivanlou at the Rockefeller University. […]
as §1, with “The cells were then pelleted by centrifugation and washed once in PBS−/−solution with 1% bovine serum albumin (BSA).” left out, “FlowJo software was used to process collected flow data.” left out

thrombopoietin [TPO]
promotion of hematopoietic cell production [1]: work well
yield of resulting stem cells [1]: 30.4%

heparin
promotion of hematopoietic cell production [1]: work well
yield of resulting stem cells [1]: 20.6%

NC(=O)c1ccc(-c2nc(-c3ccc4c(c3)OCO4)c(-c3ccccn3)[nH]2)cc1 [SB431542]
CD45+ hematopoietic cells ([1]; SB treatment day 4 to 6, read on day 12, 19-9-11 iPSCs): more than 40%
yield of resulting stem cells [1]: 40.9%
generation of CD45+ hematopoietic cells [1]: significantly enhanced
transcriptional activity of endogenous Wnt signaling (Wnt signaling): low transcriptional activity
expression of WNT3A and AXIN2 (Wnt signaling): low expression

stem cell factor [SCF]
yield and purity of CD45+ hematopoietic cells on retrieval from the differentiation medium [1]: reduced both the yield and purity

Cc1cc(-c2ccc(CC(=O)Nc3ccc(-c4cccnc4)cc3)cc2)ccn1 [Wnt-059]
generation of CD45+ hematopoietic cells [1]: significantly induced
transcriptional activity of endogenous Wnt signaling (Wnt signaling): low transcriptional activity
expression of WNT3A and AXIN2 (Wnt signaling): low expression

Cc1c[nH]c(-c2cnc(NCCNc3ccc(C#N)cn3)nc2-c2ccc(Cl)cc2Cl)n1 [CHIR99021]
effect on hematopoiesis induced by SB ([1]; activation of Wnt signaling together with SB): blocked
CD34+SOX17+ population obtained (hPSCs): homogenous CD34+SOX17+ population

B1: IL-16: cytokine that could be used in place of SB431542, lower efficiency (protein, UniProt Q14005 1212-1332, looked up)
Interleukin-16: SAASASAASDVSVESTAEATVCTVTLEKMSAGLGFSLEGGKGSLHGDKPLTINRIFKGAASEQSETVQPGDEILQLGGTAMQGLTRFEAWNIIKALPDGPVTIVIRRKSLQSKETTAAGDS
efficiency of generating AGM-like hematopoietic stem cells when used in place of SB431542 [1]: lower efficiency

B2: colony-stimulating factor 3 (protein, UniProt P09919 31-207, looked up)
Granulocyte …: TPLGPASSLPQSFLLKCLEQVRKIQGDGAALQEKLVSECATYKLCHPEELVLLGHSLGIPWAPLSSCPSQALQLAGCLSQLHSGLFLYQGLLQALEGISPELGPTLDTLQLDVADFATTIWQQMEELGMAPALQPTQGAMPAFASAFQRRAGGVLVASHLQSFLEVSYRVLRHLAQP
efficiency of generating AGM-like hematopoietic stem cells when used in place of SB431542 [1]: lower efficiency

B3: FMS-like tyrosine kinase 3 ligand (protein, UniProt P49771 27-235, looked up)
Fms-related tyrosine kinase 3 …: TQDCSFQHSPISSDFAVKIRELSDYLLQDYPVTVASNLQDEELCGGLWRLVLAQRWMERLKTVAGSKMQGLLERVNTEIHFVTKCAFQPPPSCLRFVQTNISRLLQETSEQLVALKPWITRQNFSRCLELQCQPDSSTLPPPWSPRPLEATAPTAPQPPLLLLLLLPVGLLLLAAAWCLHWQRTRRRTPRPGEQVPPVPSPQDLLLVEH
notes: Recombinant Human Flt3-Ligand, Peprotech #300-19
yield and purity of CD45+ hematopoietic cells on retrieval from the differentiation medium [1]: reduced both the yield and purity
